Six compounds from patent publication US9551722B2, “Amyloid binding agents” (The Regents of the University of California, priority 2009, dated 2017) can be followed below.

In assay [1] the target is T1, aggregated Aβ(1-42) peptides (Homo sapiens, UniProt P05067).
T1 construct: preaggregated Aβ(1-42) peptides
The assay is described as follows: Fluorescence of probes 27-31, 33 before and after mixing with aggregated Aβ42. In kind it is binding. To be noted: 4 μM probe; for Em. max (nm) after / Exc. max (nm) after / Fold increase (emission intensity after binding): 5 μM aggregated Aβ(1-42); for Em. max (nm) before / Exc. max (nm) before: nano-pure water (5% DMSO), without Aβ. Here is the method:
Aggregated Aβ peptide was prepared by dissolving Aβ(1-42) in PBS pH 7.4 to a final concentration of 100 μM. This solution was magnetically stirred at 1200 rpm for 3 days at room temperature. The 100 μM Aβ(1-42) stock solution in PBS was aliquoted and frozen at −10° C. for up to 4 weeks without noticeable change in its property. 15 μL of the pre-aggregated Aβ(1-42) was added to 285 μL of the probe (5% DMSO in nano-pure water) to attain a final concentration of 5 μM Aβ(1-42) and 4 μM of the probe. The solution was transferred to a […] cuvette and the fluorescent measured. FIGS. 9A-F show fluorescence excitation spectra of Cmpds 27-31 and 33, respectively.
LeVine III, H., Protein Sci. 1993, 2, (3), 404-410. Along these lines, we compared the fluorescent properties of 27-31 or 33 in aqueous solution with or without the presence of aggregated Aβ42 peptides. Specifically, we measured the fluorescent properties of each dye at 4 μM concentration in nano pure water, before and after mixing with aggregated Aβ42 peptide (final concentration peptide=5 μM). As it is shown in table 5, in all cases we observed a significant increase (3 to 9-fold) in the intensity of the emission spectra of the probes upon association with the aggregated amyloid peptides. This intensity increase was also accompanied with a blue shift in the emission spectra of around 5-50 nm. […] FIG. 9C provides a representative example of the fluorescent properties of compound 29.

Another assay addresses T2, aggregated Aβ42 peptides (Homo sapiens, UniProt P05067).
T2 construct: preaggregated Aβ(1-42) peptides
Nature of the assay: Apparent binding constant (Kd) of probes 27-31, 33 by fluorescence intensity vs concentration. To be noted: probe 1.25, 2.5, 5.0, 10 μM in nano-pure water, 5 μM pre-aggregated Aβ42. Here is the method: We also measured the apparent binding constants (Kd) of the probes to aggregated Aβ42 peptides. The fluorescent intensity of each probe was measured in concentrations of 1.25, 2.5, 5.0 and 10 μM in nano-pure water, mixed with 5 μM of the pre-aggregated Aβ42 peptides. Zhao, X.; Yang, J., ACS Chem. Neurosc. 1, (10), 655-660. […] On the other hand, a decrease of the Kd value was observed upon chemically altering the electron donor of the ANCA scaffold. […] FIGS. 10A-F show plots of the fluorescence intensity (at λ=525 nm) of compounds 27-31 and […], respectively, as a function of the concentration in the presence of aggregated Aβ42 peptides (5 μM) in solution.

The subject of assay [2] is amyloid plaques in human tissue from AD cases. The assay is described as follows: Fluorescence imaging of amyloid plaques in tissue sections. To be noted: frozen AD tissue sections, probe solution 30 min, washed with water. Here is the method:
FIGS. 11A-F depict fluorescence images of amyloid plaques in human tissue from AD cases. After the frozen tissue was sectioned and mounted to a glass slide, the tissue was exposed to a solution containing a fluorescent probe for 30 min. The sample was washed with water to eliminate non-specific staining of the tissue, and imaged using an inverted epi-fluorescence microscope. The images reveal the location of plaques that were stained with A) compound 27, B) compound 28, C) compound 29, D) compound 30, E) compound 31, or F) compound 33.

Where two headings read alike, the source gives them in different places.

T2 sequence (P05067 672-713 limits assumed): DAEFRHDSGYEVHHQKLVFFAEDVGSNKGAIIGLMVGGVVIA
T1 sequence (P05067 672-713 limits assumed): as above

Consider `COCCOCCOCCOC(=O)/C(C#N)=C/c1ccc2cc(NCCN3CCOCC3)ccc2c1` [Compound 30, (E)-2-(2-(2-methoxyethoxyl)ethoxy)ethyl 3-(2-(2-morpholinoethylamino)naphthalen-6-yl)-2-cyano acrylate], for which, in assay [1], the “Em. max (nm) after” value stood at 540 nm, the “Exc. max (nm) after” value was 430 nm, the “Fold increase (emission intensity after binding)” value (shortened to “Fold increase”) is given as 2.9 fold and the “Em. max (nm) before” value amounted to 570 nm. Further, the “Exc. max (nm) before” value in assay [1] is 430 nm. Also, the Kd on aggregated Aβ42 peptides (read-out: Kd) was found to be 6.7 µM. In addition, the “Staining of amyloid plaques (fluorescence image)” value (“Staining of amyloid plaques” for short) in assay [2] was “stained”.

With `COCCOCCOCCOC(=O)/C(C#N)=C/c1ccc2cc(N3CCCCC3)ccc2c1` [Compound 27, (E)-2-(2-(2-methoxyethoxyl)ethoxy)ethyl 2-cyano-3-(2-(piperidin-1-yl)napthalen-6-yl)acrylate], the Kd entry on aggregated Aβ42 peptides is “highest affinity”; at aggregated Aβ42 peptides (read-out: Kd), 1.4 µM.

In the case of `COCCOCCOCCOC(=O)/C(C#N)=C/c1ccc2cc(N3CCOCC3)ccc2c1` [Compound 29, (E)-2-(2-(2-methoxyethoxyl)ethoxy)ethyl 2-cyano-3-(2-morpholinonapthalen-6-yl)acrylate], in assay [1], the “Em. max (nm) after” value turned out to be 525 nm, the “Exc. max (nm) after” value amounted to 380 nm, the “Fold increase” value is on record as 5.1 fold and the “Em. max (nm) before” value is reported as 530 nm. In assay [1], the “Exc. max (nm) before” value is 400 nm. Further, the Kd on aggregated Aβ42 peptides (read-out: Kd) is 13.8 µM. In addition, the “Staining of amyloid plaques” value in assay [2] is “stained”.

Consider `COCCOCCOCCOC(=O)/C(C#N)=C/c1ccc2cc(N3CCN(C)CC3)ccc2c1` [Compound 28, (E)-2-(2-(2-methoxyethoxyl)ethoxy)ethyl 2-cyano-3-(2-(4-methylpiperazin-1-yl)napthalen-6-yl) acrylate], for which, in assay [1], the “Em. max (nm) after” value turned out to be 530 nm, the “Exc. max (nm) after” value worked out at 385 nm, the “Fold increase” value came out at 4.9 fold and the “Em. max (nm) before” value is 580 nm. In addition, in assay [1], the “Exc. max (nm) before” value came to 400 nm. Also, the Kd on aggregated Aβ42 peptides (read-out: Kd) is 4.6 µM. Besides, the “Staining of amyloid plaques” value in assay [2] was “stained”.

In the case of `N#C/C(=C\c1ccc2cc(N3CCCCC3)ccc2c1)C(=O)OCC(O)CO` (stereo not drawn) [Compound 33, (E)-2,3-dihydroxypropyl 2-cyano-3-(2-(piperidin-1-yl)naphthalene-6-yl)acrylate], in assay [1], the “Em. max (nm) after” value turned out to be 535 nm, the “Exc. max (nm) after” value is given as 410 nm, the “Fold increase” value amounted to 7.2 fold and the “Em. max (nm) before” value was 540 nm. Also, the “Exc. max (nm) before” value in assay [1] amounted to 410 nm. Further, the Kd result on aggregated Aβ42 peptides is recorded as “highest affinity”. Also, the Kd on aggregated Aβ42 peptides (read-out: Kd) is 1.6 µM. The “Staining of amyloid plaques” value in assay [2] is reported as “stained”.

On to `COCCOCCOCCOCCOC(=O)/C(C#N)=C/c1ccc2cc(N3CCCCC3)ccc2c1` [Compound 31, (E)-2-(2-(2-(2-methoxyethoxyl)ethoxy)ethoxy)ethyl 2-cyano-3-(2-(piperidin-1-yl)napthalen-6-yl) acrylate], for which the Kd entry on aggregated Aβ42 peptides was “highest affinity”; on aggregated Aβ42 peptides (read-out: Kd) it was 1.6 µM.
